# Laboratory results from ChEMBL document CHEMBL1147420, “Synthesis and biological evaluation of novel coumarin derivatives with a 7-azomethine linkage” (2004).
# What was measured:
# Format in all cases: functional
# [1] = Interaction percent with DPPH after 60 minutes was determined at 0.5 mM concentration
# [2] = Compound was evaluated for percent inhibition of carrageenan induced rat paw edema at 0.005 mmol/kg
# [3] = biological target: Chymotrypsinogen B (Homo sapiens) (UniProt P17538); experiment: Compound was evaluated for in vitro inhibition of chymotrypsinogen acting as esterase at 1 mM concentration
# Sequence of Chymotrypsinogen B (Homo sapiens) (P17538 34-164 limits assumed, other chains not shown): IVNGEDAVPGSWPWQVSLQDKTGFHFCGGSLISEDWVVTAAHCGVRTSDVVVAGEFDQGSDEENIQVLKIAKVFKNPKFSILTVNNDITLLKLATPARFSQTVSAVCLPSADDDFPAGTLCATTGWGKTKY
# Sequence of Chymotrypsinogen B (Homo sapiens) (P17538 167-263 limits assumed, other chains not shown): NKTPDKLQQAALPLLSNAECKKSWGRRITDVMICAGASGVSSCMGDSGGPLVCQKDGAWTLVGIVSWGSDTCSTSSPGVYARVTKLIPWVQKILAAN
# [4] = biological target: Serine protease 1 (Homo sapiens) (UniProt P07477); experiment: Compound was evaluated for in vitro inhibition of trypsin acting as esterase at 0.1 mM concentration
# Sequence of Serine protease 1 (Homo sapiens) (P07477 whole entry): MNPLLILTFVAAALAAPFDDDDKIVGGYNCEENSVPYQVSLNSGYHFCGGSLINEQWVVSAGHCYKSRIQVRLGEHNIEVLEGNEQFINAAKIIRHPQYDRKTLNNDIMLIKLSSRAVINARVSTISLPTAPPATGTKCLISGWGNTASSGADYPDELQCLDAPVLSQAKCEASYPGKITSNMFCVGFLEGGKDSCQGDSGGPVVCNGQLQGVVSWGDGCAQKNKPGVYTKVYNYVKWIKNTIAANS
# [5] = biological target: Serine protease 1 (Homo sapiens) (UniProt P07477); experiment: Compound was evaluated for in vitro inhibition of trypsin induced proteolysis at 0.1 mM concentration
# [6] = biological target: Serine protease 1 (Homo sapiens) (UniProt P07477); experiment: Compound was evaluated for in vitro inhibition of trypsin induced proteolysis at 1 mM concentration
# [7] = biological target: Chymotrypsinogen B (Homo sapiens) (UniProt P17538); experiment: Compound was evaluated for in vitro inhibition of chymotrypsinogen acting as esterase at 0.1 mM concentration
# [8] = biological target: T1, Seed linoleate 13S-lipoxygenase-1 (Glycine max) (UniProt P08170); experiment: Compound was evaluated for in vitro inhibition of soybean lipoxygenase at 1 mM concentration; no action
# T1 sequence (whole entry): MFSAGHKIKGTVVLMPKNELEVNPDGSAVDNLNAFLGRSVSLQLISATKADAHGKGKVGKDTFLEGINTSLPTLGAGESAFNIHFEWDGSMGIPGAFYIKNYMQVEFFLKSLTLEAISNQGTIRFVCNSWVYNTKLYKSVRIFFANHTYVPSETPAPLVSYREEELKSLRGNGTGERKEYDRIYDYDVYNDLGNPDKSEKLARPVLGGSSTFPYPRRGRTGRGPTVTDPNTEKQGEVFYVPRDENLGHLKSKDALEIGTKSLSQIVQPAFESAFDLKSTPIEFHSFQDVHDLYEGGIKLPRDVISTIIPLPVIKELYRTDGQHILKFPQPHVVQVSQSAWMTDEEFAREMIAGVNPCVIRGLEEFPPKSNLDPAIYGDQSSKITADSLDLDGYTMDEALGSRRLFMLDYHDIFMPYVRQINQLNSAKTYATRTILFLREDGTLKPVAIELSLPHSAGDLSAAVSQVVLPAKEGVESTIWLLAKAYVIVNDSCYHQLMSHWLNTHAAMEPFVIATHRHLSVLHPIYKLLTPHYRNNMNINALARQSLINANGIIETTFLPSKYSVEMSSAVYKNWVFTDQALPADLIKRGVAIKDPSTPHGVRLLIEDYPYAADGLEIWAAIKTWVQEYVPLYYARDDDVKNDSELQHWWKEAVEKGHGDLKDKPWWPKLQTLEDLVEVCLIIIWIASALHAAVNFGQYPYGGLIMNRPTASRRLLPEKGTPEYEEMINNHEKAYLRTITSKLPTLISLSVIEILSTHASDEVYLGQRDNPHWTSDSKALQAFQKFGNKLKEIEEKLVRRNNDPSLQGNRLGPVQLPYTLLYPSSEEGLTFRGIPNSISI
# [9] = Interaction percent with DPPH after 60 minutes was determined at 0.1 mM concentration
# [10] = Interaction percent with DPPH after 20 minutes was determined at 0.1 mM concentration
# [11] = Competition percent of compound with DMSO for hydroxyl radical was determined at 0.1 mM concentration
# [12] = Interaction percent with DPPH after 20 minutes was determined at 0.5 mM concentration
# [13] = biological target: Chymotrypsinogen B (Homo sapiens) (UniProt P17538); experiment: Compound was evaluated for in vitro inhibition of chymotrypsinogen induced proteolysis at 1 mM concentration
# [14] = biological target: Serine protease 1 (Homo sapiens) (UniProt P07477); experiment: Compound was evaluated for in vitro inhibition of trypsin acting as esterase at 1 mM concentration
# [15] = biological target: Chymotrypsinogen B (Homo sapiens) (UniProt P17538); experiment: Compound was evaluated for in vitro inhibition of chymotrypsinogen induced proteolysis at 0.1 mM concentration
structure (smiles),measurement,setting,value
CC(=O)CC(c1ccccc1)c1c(O)c2ccccc2oc1=O (stereo not given) [WARFARIN],RA,[1],12.8%
same,inhibition in vivo at 5 µmol/kg,[2],41%
same,inhibition,[3],98.2%
same,inhibition,[4],21.2%
same,inhibition,[5],92.5%
same,inhibition,[6],94.8%
same,inhibition,[7],18.4%
same,inhibition,[8],No action
same,RA,[9],24%
same,RA,[10],9.2%
same,Competition,[11],95.8%
same,RA,[12],10.3%
same,inhibition,[13],86.7%
same,inhibition,[14],97.5%
same,inhibition,[15],62.4%
